Consider 24 molecules from patent US5436221A, “Tumor metastasis inhibiting compounds and methods” (Fuji Photo Film Co., Ltd., priority 1991, dated 1995).

The subject of test [1] is B16-BL6 melanoma cells. Nature of the test: Experimental melanoma metastasis in lungs caused by injection of B16-BL6 melanoma cells. Type of test: in vivo, C57BL/6 female mice. As to the method: The tumor metastasis inhibitory activities of the peptide derivatives of the present invention were examined as follows.
Each of the following peptide derivatives according to the present invention, Compounds 1 to 13, 15, 19 to 22, 25, 32, 36, 37, 44, 47, 50, 56-1, 56-4, 59, 65, 68, 70, 73, 76, 77, 80, 84, 87, 89, 90, 94, 96, 99, 101, 103,106, 112, 114, 118 and 121 was mixed with B16-BL6 melanoma cells having a potent metastatic tendency in PBS so that 0.2 ml of the mixture contained 3000, 1000 or 500 μg of the peptide derivative and 5×10^6 of B16-BL6 melanoma cells. Then, 0.2 ml of each mixture was intravenously administered to each individual of a group of C57BL/6 female mice consisting of 5 mice. Fourteen days after the administration, the number of melanoma cell colony in lungs was determined and compared with that of the control mice, which were administered with PBS.
(§1) For comparison, the peptide fragments known to have tumor metastasis inhibition activity, Arg--Gly--Asp--Ser (SEQ ID NO:16) (Comparison A), Gly--Arg--Gly--Asp--Ser (SEQ ID NO:17) (Comparison B) and (Arg--Gly--Asp)n(n=5) (SEQ ID NO:18) as well as Reference Polymer A were also administered to the mice in the same manner as above.

The subject of test [2] is L5178Y ML25 T-lymphoma cells. Put plainly: Experimental T-lymphoma metastasis in liver and spleen caused by injection of L5178Y ML25 T-lymphoma cells. To be noted: dose 1000 μg mixed with T-lymphoma cells, i.v., 14 days after; for Weight (g): Average ± SD Spleen: PBS control 0.28 ± 0.03, no tumor cells 0.08 ± 0; for Weight (g): Average ± SD Liver: PBS control 4.21 ± 0.49, no tumor cells 1.09 ± 0.11. Type of test: in vivo, CDF1 (BALB/c×DBA/2) female mice. The protocol: Separately, each of the following peptide derivatives of the present invention, Compound 1, 2, 8, 12, 20, 47, 56, 59, 67, 73 and 85, was mixed with L5178Y ML25 T-lymphoma cells in PBS so that 0.2 ml of the mixture contained 3000 or 1000 μg of the peptide derivative and 4×10^4 of the T-lymphoma cells. Then, 0.2 ml of each mixture was intravenously administered to each individual of a group of CDF1 (BALB/c×DBA/2) female mice consisting of 5 mice. Fourteen days after the administration, the weights of the livers and the spleens of the mice were determined and compared with those of the control mice.
as §1

[3] abbreviates: Experiment 7, dose 500 μg, PBS control 85 ± 20.
The mark [4] stands for this setting: Experiment 1, dose 3000 μg mixed with B16-BL6 cells, i.v., lung colonies 14 days after, PBS control 116 ± 27.
The mark [5] stands for this setting: Experiment 2, dose 1000 μg mixed with B16-BL6 cells, i.v., lung colonies 14 days after, PBS control 84 ± 11.
The mark [6] stands for this setting: Experiment 5, dose 1000 μg, PBS control 91 ± 33.
Where [7] appears, read: Experiment 3, dose 500 μg, lung colonies 14 days after, PBS control 145 ± 30.
Setting [8] is: Experiment 6, dose 500 μg, PBS control 128 ± 24.
Where [9] appears, read: Experiment 4, dose 500 μg, PBS control 116 ± 19.

Numbered stars: 1 amine (or outer) side, 2 acyl side, 3 side chain; on linkers, the order of the positions; unused ones are H or OH. Square brackets hold non-standard residues; d marks the D form. Ends that are not written are not given here. Peptide text beside a SMILES is read from it. * marks the point of attachment. X4 = O=C(O)[C@H]1OC(OCCOCCN*)[C@H](O)[C@@H](O)[C@@H]1O; Suc = O=C(CCC(=O)[*:2])[*:1]

As for “6-O-Carboxymethyl-N-Acetylchitohexaose Carrying --Asp--Arg--Leu--Asp--Ser [Compound 94]”, the “Number of Colony Average ± SD” value in test [1] (setting [3]) is recorded as 14 ± 3.

As to “6-O-Carboxymethyl-N-Acetylchitohexaose Carrying --Gly--Arg--Phe--Asp--Ser [Compound 96]”, the “Number of Colony Average ± SD” value in test [1] (setting [3]) is recorded as 9 ± 4.

Take “6-O-Sulfated-Carboxymethyl-N-Acetylchitooligosaccharide Carrying --Asp--Arg--D--Leu--Asp--Ser [Compound 99]”: the “Number of Colony Average ± SD” value in test [1] (setting [3]) is reported as 3 ± 3.

Take “6-O-Sulfated-Carboxymethyl-N-Acetylchitooligosaccharide Carrying --Asp--Arg--D--Phe--Asp--Ser [Compound 101]”: the “Number of Colony Average ± SD” value in test [1] (setting [3]) is 13 ± 6.

For the molecule `N=C(N)NCCC[C@H](N)C(=O)NCC(=O)N[C@@H](CC(=O)O)C(=O)N[C@@H](CO)C(=O)O` [Comparison A, Arg--Gly--Asp--Ser], the “Number of Colony Average ± SD” value in test [1] (setting [4]) is on record as 70 ± 8; in test [1] (setting [5]) it was 62 ± 9; in test [1] (Experiment 3, dose 3000 μg, PBS control 145 ± 30), 92 ± 14; in test [1] (Experiment 4, dose 3000 μg, PBS control 116 ± 19) it was 74 ± 11; in test [1] (Experiment 5, dose 3000 μg, PBS control 91 ± 33) it was 60 ± 4; in test [1] (Experiment 6, dose 3000 μg, PBS control 128 ± 24), 88 ± 20. The “Number of Colony Average ± SD” value in test [1] (Experiment 7, dose 3000 μg, PBS control 85 ± 20) is 51 ± 6. For the same molecule, the “Weight (g): Average ± SD Spleen” value in test [2] is 0.22 ± 0.03 g. In addition, in test [2], the “Weight (g): Average ± SD Liver” value came out at 3.67 ± 1.04 g.

Take `N=C(N)NCCC[C@H](NC(=O)CN)C(=O)NCC(=O)N[C@@H](CC(=O)O)C(=O)N[C@@H](CO)C(=O)O` [Comparison B, Gly--Arg--Gly--Asp--Ser]: the “Number of Colony Average ± SD” value stood at 50 ± 10 in test [1] (setting [4]); 40 ± 10 in test [1] (setting [5]); 89 ± 18 in test [1] (Experiment 3, dose 1000 μg, PBS control 145 ± 30); 78 ± 8 in test [1] (Experiment 4, dose 1000 μg, PBS control 116 ± 19); 49 ± 7 in test [1] (setting [6]); 76 ± 6 in test [1] (Experiment 6, dose 1000 μg, PBS control 128 ± 24). Further, the “Number of Colony Average ± SD” value in test [1] (Experiment 7, dose 1000 μg, PBS control 85 ± 20) was 50 ± 8. In addition, in test [2], the “Weight (g): Average ± SD Spleen” value was 0.17 ± 0.03 g. Moreover, the “Weight (g): Average ± SD Liver” value in test [2] amounted to 2.24 ± 0.46 g.

In the case of `CC(C)C[C@H](NC(=O)[C@@H](N)CCCNC(=N)N)C(=O)N[C@@H](CC(=O)O)C(=O)N[C@@H](CO)C(N)=O` [Compound 9] (H-RLDS-NH2), in test [1] (setting [4]), the “Number of Colony Average ± SD” value is given as 22 ± 10.

Take `C[C@@H](NC(=O)[C@@H](N)CCCNC(=N)N)C(=O)N[C@@H](CC(=O)O)C(=O)N[C@H](C(N)=O)[C@@H](C)O` [Compound 10] (H-R[dA]DT-NH2): the “Number of Colony Average ± SD” value in test [1] (setting [4]) turned out to be 58 ± 15.

Regarding `CC(=O)N[C@@H](CC(=O)O)C(=O)N[C@H](CCCNC(=N)N)C(=O)N[C@@H](CC(C)C)C(=O)N[C@@H](CC(=O)O)C(=O)N[C@@H](CO)C(=O)O` [Compound 32] (Ac-D[dR]LDS-OH), the “Number of Colony Average ± SD” value in test [1] (setting [5]) is reported as 24 ± 5.

Regarding `CC(C)C[C@@H](NC(=O)[C@H](CCCNC(=N)N)NC(=O)[C@H](CO)NC(=O)[C@H](CC(=O)O)NC(=O)[C@@H](CC(C)C)NC(=O)[C@H](CCCNC(=N)N)NC(=O)[C@H](CO)NC(=O)[C@H](CC(=O)O)NC(=O)[C@@H](CC(C)C)NC(=O)[C@H](CCCNC(=N)N)NC(=O)[C@H](CO)NC(=O)[C@H](CC(=O)O)NC(=O)[C@@H](CC(C)C)NC(=O)[C@@H](N)CCCNC(=N)N)C(=O)N[C@@H](CC(=O)O)C(=O)N[C@@H](CO)C(=O)O` [Compound 37] (H-R[dL]DSR[dL]DSR[dL]DSR[dL]DS-OH), the “Number of Colony Average ± SD” value in test [1] (setting [7]) is 27 ± 11.

Regarding `CC(C)C[C@H](NC(=O)[C@H](CCCNC(=N)N)NC(=O)CCC(=O)NCCOCCOC1O[C@H](C(=O)O)[C@@H](O)[C@H](O)[C@H]1O)C(=O)N[C@@H](CC(=O)O)C(=O)N[C@@H](CO)C(=O)O` (some centres unmarked) [Compound 80] ({X4-Suc}-RLDS-OH), the “Number of Colony Average ± SD” value in test [1] (setting [8]) worked out at 36 ± 7.

(Arg--Gly--Asp)n(n=5) [Comparison C]: the “Number of Colony Average ± SD” value is reported as 40 ± 15 in test [1] (Experiment 1, dose 1000 μg mixed with B16-BL6 cells, i.v., lung colonies 14 days after, PBS control 116 ± 27); 23 ± 9 in test [1] (setting [5]); 68 ± 9 in test [1] (setting [7]); 39 ± 11 in test [1] (setting [6]); 57 ± 12 in test [1] (setting [8]); 44 ± 16 in test [1] (setting [3]).

Take GRLDS [Compound 15]: the “Number of Colony Average ± SD” value in test [1] (setting [4]) was found to be 43 ± 12.

“Iminodiacetic Acid-Tetracraboxylic Acid Derivative (β-Ala--Arg--Leu--Asp--Ser)4 [Compound 76]”: the “Number of Colony Average ± SD” value in test [1] (setting [9]) came to 48 ± 5.

Take RLDSRLDSRLDSRLDS [Compound 36]: the “Number of Colony Average ± SD” value in test [1] (setting [7]) amounted to 46 ± 6.

“R[dL]DR[dL]DR[dL]DR[dL]DR[dL]DR[dL]DR[dL]DR[dL]DR[dL]DR[dL]DR[dL]DR[dL]DR[dL]DR[dL]DR[dL]DR[dL]DR[dL]DR[dL]DR[dL]DR[dL]D [Compound 44]”: the “Number of Colony Average ± SD” value in test [1] (setting [7]) was 66 ± 15.

With “Succinyl Derivative of Chondroitin Sulfate Carrying --(Arg--D--Leu--Asp--Ser)2 [Compound 121]”, the “Number of Colony Average ± SD” value in test [1] (setting [3]) is on record as 45 ± 11.

As to “Succinylated CM-Chitin Carrying --(Arg--D--Leu--Asp--Ser)2 [Compound 112]”, the “Number of Colony Average ± SD” value in test [1] (setting [3]) is on record as 14 ± 7.

In the case of “Succinylated CM-Chitin Carrying --Gly--Arg--D--Leu--Asp--Ser [Compound 106]”, the “Number of Colony Average ± SD” value in test [1] (setting [3]) came to 1 ± 1.

As for “Succinylated Chondroitin Sulfate Carrying --D--Arg--Phe--Asp--Ser [Compound 118]”, the “Number of Colony Average ± SD” value in test [1] (setting [3]) was determined as 43 ± 8.

For the molecule “Succinylated Pantaethylenehexaamine (β-Ala--Arg--Leu--Asp--Ser--NH--iPr)6 [Compound 77]”, the “Number of Colony Average ± SD” value in test [1] (setting [9]) came out at 41 ± 6.

“Succinylated Polyallylamine Carrying --(Asp--D--Arg--Phe--Asp--Ser)2 [Compound 103]”: the “Number of Colony Average ± SD” value in test [1] (setting [3]) is given as 24 ± 8.

Regarding “Sulfated CM-Chitin Carrying --Gly--D--Arg--Leu--Asp--Ser [Compound 114]”, in test [1] (setting [3]), the “Number of Colony Average ± SD” value was 21 ± 11.

“Tetrahydrofuran-2,3,4,5-Tetracarboxylic Acid (Arg--Leu--Asp--Ser)4 (RLDS; also: four copies on tetrahydrofuran-2,3,4,5-tetracarboxylic acid core) [Compound 73]”: the “Number of Colony Average ± SD” value in test [1] (setting [9]) was 38 ± 7. For the same molecule, in test [2], the “Weight (g): Average ± SD Spleen” value came out at 0.15 ± 0.05 g and the “Weight (g): Average ± SD Liver” value is reported as 1.95 ± 1.00 g.
